The values below come from patent US11561227B2, “Anti-mitochondrial inhibitors for oncogenic Ras and Myc” (LUNELLA BIOTECH, INC., priority 2017, dated 2023).

The test relates to MCF7 cells. Description: Mammosphere formation in MCF7 cells (rotenone-induced oxidative stress). It is filed as cell-based, human. The method, then:
Investigation of the mechanism of tumorigenesis may be conducted by transduction of MCF7 cells with c-Myc, H-Ras, or both, and then subjecting the cell lines to phenotypic characterization, such as mammosphere formation. For the mammosphere formation assay inventors employed, a single suspension of MCF7 cells was prepared using enzymatic (lx Trypsin-EDTA, Sigma Aldrich) and manual disaggregation with a 25-gauge needle. Cells were plated at a density of 500 cells/cm^2 in a mammosphere medium (DMEM-F12/B27/20-ng/mlEGF/PenStrep) in non-adherent conditions, in culture dishes coated with 2-hydroxyethylmethacrylate (poly-HEMA, Sigma). Cells were grown for 5 days and maintained in a humidified incubator at 37° C. at an atmospheric pressure in 5% (v/v) carbon dioxide/air. After 5 days in culture, spheres >50 μm were counted using an eye-piece graticule, and the percentage of cells plated which formed spheres was calculated and is referred to as percent mammosphere formation, normalized to vehicle-alone treated controls. Mammosphere assays were performed in triplicate and repeated three times independently.
The inventors hypothesized that c-Myc induces “stemness” of CSCs in part by driving and managing the onset of mitochondrial oxidative stress. To test this hypothesis, inventors used a pharmacological approach to stimulate oxidative stress. Rotenone is a naturally occurring isoflavone that behaves as an inhibitor of complex I and strongly induces mitochondrial oxidative stress. During rotenone treatment, mitochondrial complexes I and III are the major sites of electron leakage, resulting in increased superoxide production. The inventors treated MCF7 cells with increasing concentrations of Rotenone.
To further validate that the effects of low-dose Rotenone were due to oxidative stress, the inventors tested the effects of a mitochondrial-specific antioxidant Mito-tempo. Mito-tempo functions as a reactive oxygen species (ROS) scavenger by targeting superoxide anions generated in mitochondria.

Take `CC1(C)CC(NC(=O)C[P+](c2ccccc2)(c2ccccc2)c2ccccc2)CC(C)(C)N1[O]` [Mito-tempo]: the “effect on rotenone-stimulated mammosphere formation” value (MCF7 mammospheres pretreated with rotenone, FIG. 6) is “inhibited the stimulatory effects of rotenone”.

For the molecule `C=C(C)[C@H]1Cc2c(ccc3c2O[C@@H]2COc4cc(OC)c(OC)cc4[C@@H]2C3=O)O1` [Rotenone], the “effect on mammosphere formation” value (higher dose Rotenone, MCF7 cells, FIG. 5) is “inhibited mammosphere formation”. Further, the “stimulation of mammosphere formation” value (low-dose Rotenone, MCF7 cells, FIG. 5) is given as 1.6 to 1.8 fold.
